# Data: patent US20240368183A1, “Macrocyclic Compounds Having ENT1 Inhibiting Activity” (iTeos Belgium SA, priority 2021, published 2024)
# Read-outs that look alike come from different tables or passages of the source.
# Experiments:
# [1] = test system: stimulated primary human T cells; experiment: T cell proliferation assay (rescue of proliferation in the presence of ATP); assay type: cell-based
# Protocol: The aim of this study was to determine the potency of equilibrative nucleoside transporter 1 (ENT1) inhibitors to rescue proliferation by stimulated primary human T cells incubated in the presence of 100 uM Adenosine triphosphate (ATP), in baseline conditions (condition A) or in the presence of various proteins known to bind small molecules (condition B)
# Condition B: X-VIVO15, 2% Human Serum Albumine (HSA) and 0.1% α-1-Acid Glycoprotein (AAG)
# Cryopreserved purified human CD3+ T cells were thawed and washed twice with RPMI1640 medium, UltraGlutamine containing 10% hiFBS.
# Cells were suspended in PBS containing 10% hiFBS. Cells were stained with CFSE by adding 2 μM solution in PBS, to get a final 1 μM CFSE solution. Cells were incubated while rotating for 5 minutes. Reaction was stopped by adding PBS with 10% FBS and cells were centrifuged for 5 minutes at 1500 rpm.
# Cells were resuspended at 1.6×10^6 cells/mL, either in X-VIVO15 medium or in 4% Human Serum Albumin and 0.2% α-1-Acid Glycoprotein. 50 μL of cell suspension (8×10^4 T cells) was added to wells of sterile round-bottom 96-well plates. Cells were activated by adding 50 μL of anti-CD3 anti-CD28 coated microbeads, suspended either in XVIVO-15 medium or in 4% HSA and 0.2% α-1-Acid Glycoprotein, at a ratio of one microbead per two cells.
# Serial dilutions of the ENT1 inhibitors were prepared in X-VIVO15 from 10 mM stock solutions in DMSO, and 50 μL was added to the wells.
# ATP powder was diluted in X-VIVO15, and 50 μL of this compound was added to the wells to reach a final assay concentration of 100 μM. Final volume of 200 μL.
# The experiments were also performed in 384 well plates—all volumes reduced by a factor of 4 (12.5 μL) with a final volume of 50 μL.
# Experiments were performed in duplicate. The cells were placed in a 37° C. humidified tissue culture incubator with 5% CO2 for 72 hours for 96 well plates, 96 hours for 384 well plates After 72 or 96 hours, proliferation was measured determined by CFSE dilution via flow cytometry.
# human ENT1 = biological target: T1, human ENT1 (Homo sapiens, UniProt Q99808); experiment: ENT1 binding assay (competition with Sahenta-DY647); conditions: JAR cells expressing ENT1; competition with Sahenta-DY647 (100 nM); 4° C.
# T1 construct: JAR cells expressing ENT1 were bought from ATCC® (HTB-144TM); host or cells: JAR cells (human choriocarcinoma line, own knowledge)
# T1 sequence (Q99808 1-456): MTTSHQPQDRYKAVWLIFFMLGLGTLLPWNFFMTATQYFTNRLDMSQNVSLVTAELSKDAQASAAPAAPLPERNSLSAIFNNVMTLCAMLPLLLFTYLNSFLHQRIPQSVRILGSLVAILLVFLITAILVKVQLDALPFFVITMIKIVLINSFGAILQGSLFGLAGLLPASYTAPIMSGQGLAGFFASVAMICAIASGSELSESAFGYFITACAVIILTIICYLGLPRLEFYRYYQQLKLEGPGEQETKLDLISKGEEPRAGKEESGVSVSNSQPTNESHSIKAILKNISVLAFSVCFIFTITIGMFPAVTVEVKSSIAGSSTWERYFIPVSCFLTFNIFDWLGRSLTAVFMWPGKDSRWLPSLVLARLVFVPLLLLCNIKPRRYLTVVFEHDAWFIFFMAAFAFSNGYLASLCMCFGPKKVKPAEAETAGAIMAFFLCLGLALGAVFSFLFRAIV
# Protocol: The present assay aims at showing that the compounds of the present disclosure can bind to human ENT1. The principle of the assay is a competition between the compounds of this present disclosure and Sahenta-DY647, an ENT1 inhibitor that emits fluorescence (Ex=630 nm, Em=670 nm). By measuring the fluorescence at the end of the assay we could assess the binding potency of the compounds of the present disclosure.
# JAR cells expressing ENT1 were bought from ATCC® (HTB-144TM). Cells were cultured in RPMI 1640 medium (LONZA®, #BE12-702F/U1) supplemented with 10% FBS (GIBCO®, #10270-106), 10 mM Hepes (LONZA®, #BE17-737E), 1 mM Sodium Pyruvate (LONZA®, #BE13-115E) and 2% Penicillin/Streptomycin (LONZA®, #DE17-603E) at 37° C. and 5% CO2. The assay was conducted on the following buffer: HBSS (LONZA®, #LO-527F) supplemented with 10 mM Hepes (LONZA®, #BE17-737E) and 0.1% BSA (Miltenyi®, #130-091-376) on the day of the assay.
# JAR cells were resuspended in the described buffer. Compounds of the present disclosure and Sahenta-DY647 were diluted 200× in the described buffer.
# A total of 50 000 cells were pre-incubated for 30 min at 4° C. with the compounds of the present disclosure before adding the corresponded IC90 of Sahenta-DY647 (100 nM) and incubate once more for 30 min at 4° C. The total volume of the reaction was 100 μL (50 μL of cells, 25 μL of the compounds of the present disclosure and 25 μL of Sahenta-DY647) in a 96 well plate, U-bottom (Greiner®, #650-180). The plates were washed 2× by centrifugation (4 min, 400 rcf at 4° C.) in the same buffer. Cells were re-suspended in 70 μL of the buffer and 50 μL was transferred to a Black 384 Optiplate (PerkinElmer®, #6007279). Fluorescence (Ex=630 nm, Em=670 nm) was acquired on a Spectramax i3x (Molecular Devices®).
# [2] = Condition B: X-VIVO15, 2% Human Serum Albumine (HSA) and 0.1% α-1-Acid Glycoprotein (AAG), 100 μM ATP, read-out: (2) T Cell proliferation (Condition B) IC50
# [3] = Homo sapiens, Condition A: X-VIVO15, 100 μM ATP, read-out: T Cell proliferation (Condition A) IC50
SMILES,IC50 (human ENT1),"IC50 [1, 2]","IC50 [1, 3]"
COc1cc2cc(c1OC)OCCCC(OC(=O)c1ccccc1)CCN1CCCN(CCCOC2)CC1 (stereo not drawn) [Compound 2],1 to 20 nM,> 500 nM,1 to 20 nM
COc1cc2cc(c1OC)OCCCC(OC(=O)c1cn(C)nn1)CCN1CCCN(CCCOC2=O)CC1 (stereo not drawn) [Compound 8],1 to 20 nM,–,–
COc1cc2cc(c1OC)OCCCC(OC(=O)c1cnn(C)c1)CCN1CCCN(CCCOC2=O)CC1 (stereo not drawn) [Compound 9],1 to 20 nM,1 to 20 nM,< 0.1 nM
COc1cc2cc(c1OC)OCCCC(OC(=O)c1ccnn1C)CCN1CCCN(CCCOC2=O)CC1 (stereo not drawn) [Compound 10],1 to 20 nM,20 to 500 nM,< 0.1 nM
COc1cc2cc(c1OC)OCCCC(OC(=O)c1ccn(C)n1)CCN1CCCN(CCCOC2=O)CC1 (stereo not drawn) [Compound 11],1 to 20 nM,> 500 nM,< 1 nM
COc1ccc(C(=O)OC2CCCOc3cc(cc(OC)c3OC)C(=O)OCCCN3CCCN(CC2)CC3)cc1OC (stereo not drawn) [Compound 16],1 to 20 nM,1 to 20 nM,< 0.1 nM
[2H]C([2H])([2H])Oc1cc(C(=O)O[C@@H]2CCCOc3cc(cc(OC)c3OC)C(=O)NCCCN3CCCN(CC2)CC3)cc(OC([2H])([2H])[2H])c1OC([2H])([2H])[2H] [Compound 17],1 to 20 nM,1 to 20 nM,< 0.1 nM
COc1cc2cc(c1OC)OCCCC(Oc1nccc3ccccc13)CCN1CCCN(CCCOC2=O)CC1 (stereo not drawn) [Compound 23],1 to 20 nM,20 to 500 nM,1 to 20 nM
COc1cc2cc(c1OC)OCCCC(Oc1nncc3ccccc13)CCN1CCCN(CCCOC2=O)CC1 (stereo not drawn) [Compound 24],1 to 20 nM,20 to 500 nM,< 0.1 nM
COc1cc2cc(c1OC)OCCCC(n1ncc(-c3ccccc3)n1)CCN1CCCN(CCCOC2=O)CC1 (stereo not drawn) [Compound 28],1 to 20 nM,20 to 500 nM,< 1 nM
Cn1nnc2cc(C(=O)OC3CCCOc4cc(cc(Cl)c4Cl)C(=O)NCCCN4CCCN(CC3)CC4)ccc21 (stereo not drawn) [Compound 34],500 to 1000 nM,–,–
COc1cc2cc(c1OC)OCCCC(OCc1ccccc1)CCN1CCCN(CCCOC2=O)CC1 (stereo not drawn) [Compound 35],500 to 1000 nM,–,–
COc1cc(C(=O)OC2CCCOc3cccc(c3)-c3cn(nn3)CCCN3CCCN(CC2)CC3)cc(OC)c1OC (stereo not drawn) [Compound 36],20 to 500 nM,–,–
COc1cc(C(=O)OC2CCCOc3cc(cc(OC)c3OC)CCCCCN3CCCN(CC2)CC3)cc(OC)c1OC (stereo not drawn) [Compound 45],1 to 20 nM,–,–
COc1cc(C(=O)OC2CCCOc3cc(cc(OC)c3OC)C#CCCS(=O)(=O)N3CCCN(CC2)CC3)cc(OC)c1OC (stereo not drawn) [Compound 46],20 to 500 nM,–,–
"COc1cc(C(=O)OCCCN2CCCN(CCCOC(=O)c3cc(OC)c(OC)c(OC)c3)CC2)cc(OC)c1OC [Dilazep, dilazep, reference compound]",–,20 to 500 nM,1 to 20 nM

# The next lines start with results.
IC50 (human ENT1),SMILES,"IC50 [1, 2]","IC50 [1, 3]"
< 1 nM,COc1cc(C(=O)OC2CCCOc3cc(cc(OC)c3OC)COCCCN3CCCN(CC2)CC3)cc(OC)c1OC (racemic) [Compound 3],< 1 nM,< 0.1 nM
1 to 20 nM,"COc1cc(C(=O)O[C@@H]2CCCOc3cc(cc(OC)c3OC)COCCCN3CCCN(CC2)CC3)cc(OC)c1OC (single isomer, unassigned) [Compound 4]",< 1 nM,< 0.1 nM
20 to 500 nM,"COc1cc(C(=O)O[C@H]2CCCOc3cc(cc(OC)c3OC)COCCCN3CCCN(CC2)CC3)cc(OC)c1OC (single isomer, unassigned) [Compound 5]",–,–
500 to 1000 nM,COc1cc(C(=O)O[C@H]2CCOc3cc(cc(OC)c3OC)C(=O)NCCCN3CCCN(CC2)CC3)cc(OC)c1OC (stereo in doubt) [Compound 38],–,–
20 to 500 nM,COc1cc2cc(c1OC)OCCCC(O/N=C/c1ccccc1)CCN1CCCN(CCCOC2)CC1 (stereo not drawn) [Compound 1],–,–
1 to 20 nM,COc1cc2cc(c1OC)OCCCC(OC(=O)CCC(=O)N1CCOCC1)CCN1CCCN(CCCOC2)CC1 (stereo not drawn) [Compound 6],> 500 nM,< 1 nM
1 to 20 nM,COc1cc2cc(c1OC)OCCCC(OC(=O)c1cnnn1C)CCN1CCCN(CCCOC2=O)CC1 (stereo not drawn) [Compound 7],–,–
1 to 20 nM,COc1cc2cc(c1OC)OCCCC(OC(=O)c1cc(C)nn1C)CCN1CCCN(CCCOC2=O)CC1 (stereo not drawn) [Compound 12],1 to 20 nM,< 1 nM
1 to 20 nM,COc1ccc(C(=O)OC2CCCOc3cc(cc(OC)c3OC)C(=O)OCCCN3CCCN(CC2)CC3)cc1 (stereo not drawn) [Compound 13],–,–
1 to 20 nM,COc1cccc(C(=O)OC2CCCOc3cc(cc(OC)c3OC)C(=O)OCCCN3CCCN(CC2)CC3)c1 (stereo not drawn) [Compound 14],–,–
1 to 20 nM,COc1cc(OC)cc(C(=O)OC2CCCOc3cc(cc(OC)c3OC)C(=O)OCCCN3CCCN(CC2)CC3)c1 (stereo not drawn) [Compound 15],1 to 20 nM,< 1 nM
1 to 20 nM,COc1cc(C(=O)OC2CCCOc3cc(cc(OC)c3OC)C(=O)NCCN3CCCN(CC2)CC3)cc(OC)c1OC (stereo not drawn) [Compound 19],20 to 500 nM,< 1 nM
20 to 500 nM,COc1cc2cc(c1OC)OCCCC(OC(=O)CCC(=O)N1CCOCC1)CCN1CCCN(CCCNC2=O)CC1 (stereo not drawn) [Compound 20],> 500 nM,1 to 20 nM
1 to 20 nM,COc1cc(C(=O)OC2CCCOc3cc(cc(OC)c3OC)C(=O)NCCC(=O)N3CCCN(CC2)CC3)cc(OC)c1OC (stereo not drawn) [Compound 21],1 to 20 nM,< 0.1 nM
20 to 500 nM,COc1cc2cc(c1OC)OCCCC(Oc1ncccn1)CCN1CCCN(CCCOC2=O)CC1 (stereo not drawn) [Compound 22],–,–
500 to 1000 nM,COc1cc2cc(c1OC)OCCCC(Oc1ccn(C)n1)CCN1CCCN(CCCOC2=O)CC1 (stereo not drawn) [Compound 25],–,–
1 to 20 nM,COc1cc2cc(c1OC)OCCCC(OC(=O)N1CCOCC1)CCN1CCCN(CCCOC2=O)CC1 (stereo not drawn) [Compound 26],–,–
1 to 20 nM,COc1cc2cc(c1OC)OCCCC(OC(=O)N1CCCCC1)CCN1CCCN(CCCOC2=O)CC1 (stereo not drawn) [Compound 27],–,–
20 to 500 nM,COc1cc(C(=O)OC2CCCOc3cc(cc(OC)c3OC)C(=O)NCCC(=O)N3CCN(CC2)CC3)cc(OC)c1OC (stereo not drawn) [Compound 31],–,–
500 to 1000 nM,COc1cc2cc(c1OC)OCCCCCCN1CCCN(CCCOC2=O)CC1 [Compound 32],–,–
20 to 500 nM,COc1cc(C(=O)O[C@@H]2CCOc3cc(cc(OC)c3OC)C(=O)NCCCN3CCCN(CC2)CC3)cc(OC)c1OC [Compound 39],–,–
